Entries after “also recorded” stand apart in the source; their conditions may differ.
Assays:
ERK1 [1] = test: Western blot of transfected HEK293 cells: ERK1; type: cell-based, human
Text: Separate cultures of an immortalized cell line of human embryonic kidney cells (HEK293) were transfected with three active siRNAs directed against human ERK2. […] The sequences of the three human ERK2 siRNAs (#1, #2, and #3) and the control mismatch siRNA are shown below. The siRNAs were expressed from the rAAV vector. Thus, to generate the siRNA #1, the DNA sequence of the sense strand […] NO:777) was linked to a spacer derived from an miRNA […] ID NO:766) at the 3' end, which was then linked to the corresponding antisense sequence […] NO:778)). Thus, the non-template strand sequence used in the expression cassette for the […] NO:777) siRNA will have the following sequence (SEQ ID NO:779)): [NT] This sequence was placed downstream of an RNA polymerase III (RNA pol III) promoter in the rAAV vector. The vector also contained 6 consecutive dTs in the non-template strand following the SEQ ID NO:779 sequence to stop the transcription.

ERK2 mRNA = test: Non-radioactive in situ hybridization of ERK2 mRNA in spinal cord dorsal horn after intraparenchymal vector injection; type: in vivo, mouse; settings: 3 weeks after intraparenchymal injection; ipsilateral vs contralateral; listed as MM
Procedure: (§1) The viral vectors, ERK2-5, 2-7, 2-8 and MM were micro-injected into the spinal cord dorsal horn (SCDH) as described by South et al. (South et al., 2003). The mice were anesthetized with ketamine/xylazine. A laminectomy was performed to remove part of the dorsal L2 and L3 spinous process and the lumbar area of spinal cord was exposed for intraparenchymal injection (IPI). Three unilateral injections of 1 μl (1-3×10^9 viral particles/μl) were administered 0.5-0.7 mm apart, at a depth of 0.3 mm from the dorsal border and 0.5 mm from the midline, using a glass pipette with a 40-μm-diameter tip attached to a 5 μl Hamilton syringe. The syringe was mounted on a microinjector (David Kopf Instruments, Tujunga, Calif.) attached to a stereotaxic unit (David Kopf Instruments). After the injection, the overlying muscles were closed with 5-0 chromic gut and the skins were closed with wound clips. […]
ERK2 mRNA expression in the SCDH was detected by non-radioactive in situ hybridization as described by (Garraway et al., 2007). […]
(§2) Fluorescent IHC images were captured by a Zeiss LSM 510 laser scanning confocal microscope. […] Quantitative analysis was performed by a blinded observer using Metamorph software (Universal Imaging, Downingtown, Pa.) as described previously (Garraway et al., 2007). […]

[2] = system: fusion mRNA of the ERK2 and the humanized Renilla luciferase (hRluc) gene; test: psiCHECK Dual Luciferase Reporter Assay; type: cell-based, mouse; settings: HEK 293 cells cotransfected with psiCHECK plasmid and rAAV plasmid; normalized to 100% of rAAV plasmid lacking shRNA (GFP); n=4
Text: FIGS. 1A-J illustrate expression of green fluorescent protein (GFP) and the knockdown of ERK2 mRNA in the mouse spinal cord dorsal horn (SCDH) at 3 weeks after the intraparenchymal injection of a neurotropic recombinant adeno-associated virus (rAAV) vector expressing ERK2 siRNA. […] Thus, the expression of GFP was not influenced by co-expression of the ERK2 siRNAs. […] Scale bar, 500 μm. In FIG. 1I, ERK2 mRNA expression was quantified from in situ images and plotted in the bar graph as the ratio of the integrated optical density of in situ labeling in the ipsilateral SCDH to that in the contralateral SCDH. Data are the mean±SEM (n=3). […] There was no significant difference in the ratio among the three active siRNA vectors. […] HEK 293 cells were cotransfected with the psiCHECK plasmid (which contains the ERK2-Renilla luciferase fusion gene and the firefly luciferase gene) and with a rAAV plasmid expressing a candidate ERK2 shRNA sequence. rAAV plasmids that yield active siRNAs reduce the expression of Renilla luciferase relative to firefly luciferase, leading to a reduction of the activity ratio. The assay results are the mean±SEM (n=4). The Renilla/firefly signal was normalized to a value of 100% from the results of a concurrent assay containing psiCHECK and a rAAV plasmid that lacked coding for a shRNA sequence (GFP). […]

C57BL/6 mice [3] = test: Acute mechanical stimulus threshold (von Frey); type: in vivo, mouse; settings: before vs. at least 3 weeks after vector administration, no CFA
Procedure: Mechanical stimulus threshold to a non-noxious mechanical stimulus was determined by paw withdrawal to the application of a series of calibrated von Frey filaments to the surface of the hind paws. The animals were placed in a Plexiglas cage with mesh flooring suspended above the researcher and left to acclimate for 30 min. von Frey filaments were applied perpendicularly against the mid-plantar surface of the foot. The “up-down” method of Dixon (Chaplan et al., 1994) was used to determine the value at which paw withdrawal occurred 50% of the time, interpreted as the mechanical threshold.

[4] = system: spinal cord dorsal horn (SCDH); settings: mouse, in vivo
Procedure: Mice were anesthetized with pentobarbital and then perfused transcardially with 4% paraformaldehyde (PFA) in phosphate buffered saline (PBS) with 1 mM NaF. Fifty mL of fixative was perfused over 5 min by using a peristaltic pump. The spinal cord was dissected and placed in 4% PFA for 1 hr before being transferred to 30% sucrose for cryoprotection for 72 hr. Lumbar spinal cord cryosections of 20-μm thick were obtained from a cryostat (Leica, Bannockburn, Ill.) for IHC and in situ hybridization.
For IHC, the spinal cord sections were incubated in blocking solution (3% normal goat serum, 0.1% Triton X-100 in Tris buffered saline) for 30 min. After washing in Tris buffered saline (TBS), sections were incubated with one or two of the following primary antibodies: rabbit anti-GFP (1:1000; Invitrogen-Molecular Probes Inc, Eugene, Oreg.), rabbit anti-phospho-ERK1/2 (1:1000; Cell Signaling Technology, Inc., Danvers, Mass.), mouse anti-NeuN (1:400; Millipore-Chemicon, Bedford, Mass.), rabbit anti-c-fos (1:2000, Santa Cruz Biotechnology, Santa Cruz, Calif.), rabbit anti-Dynorphin A(1:2000, Bachem, San Carlos, Calif.), mouse anti-GFAP (1:2000; Millipore-Chemicon) and rat anti-OX42 (1:1000, BD Biosciences, San Diego, Calif.) overnight in blocking solution at 4° C. […]

C57BL/6 mice [5] = test: Acute thermal paw withdrawal threshold; type: in vivo, mouse; settings: before vs. at least 3 weeks after vector administration, no CFA
Procedure: Thermal paw withdrawal threshold was assessed using a thermal nociceptive stimulus apparatus (Hargreaves et al., 1988). Prior to the test, the animals were allowed to acclimate for 30 min to the test chamber on a pre-heated glass plate maintained at 30° C. A radiant thermal stimulus (5.10 amps) was applied to the mid-plantar surface of the hind paw through the glass plate. The latency, in seconds, for the withdrawal of the paw from the heat source was determined automatically. If no response was elicited, the heat source was automatically shut off at 20 sec to prevent tissue injury. A minimum break of 5 min was allowed between each trial. Three to six trials were performed for each paw.

[6] = system: spinal cord dorsal horn (SCDH); test: GFP immunolabeling after rAAV vector injection (extent and cell type of transduction); type: in vivo, mouse; settings: confocal fluorescent immunohistochemistry; NeuN, GFAP, OX42 markers
Procedure: The viral vectors, ERK2-5, 2-7, 2-8 and MM were micro-injected into the spinal cord dorsal horn (SCDH) as described by South et al. (South et al., 2003). The mice were anesthetized with ketamine/xylazine. A laminectomy was performed to remove part of the dorsal L2 and L3 spinous process and the lumbar area of spinal cord was exposed for intraparenchymal injection (IPI). Three unilateral injections of 1 μl (1-3×10^9 viral particles/μl) were administered 0.5-0.7 mm apart, at a depth of 0.3 mm from the dorsal border and 0.5 mm from the midline, using a glass pipette with a 40-μm-diameter tip attached to a 5 μl Hamilton syringe. The syringe was mounted on a microinjector (David Kopf Instruments, Tujunga, Calif.) attached to a stereotaxic unit (David Kopf Instruments). After the injection, the overlying muscles were closed with 5-0 chromic gut and the skins were closed with wound clips. Animals were allowed to recover for three weeks before undergoing behavioral tests, or sacrificed for histological and Western blot analysis.
as §2

ERK1 [7] = test: Western blot of spinal cord dorsal horn: ERK1 and pERK1; type: in vivo, mouse; settings: compared to animals that did not receive intraparenchymal injection of a vector
Procedure: as §1, with “syringe.” for “syringe. The syringe was mounted on a microinjector (David Kopf Instruments, Tujunga, Calif.) attached to a stereotaxic unit (David Kopf Instruments). After the injection, the overlying muscles were closed with 5-0 chromic gut and the skins were closed with wound clips.”
(§3) Animals were deeply anesthetized by isoflurane, decapitated and the lumbar spinal cord dorsal horn at the level of L4-L6 were rapidly dissected. […] The protein level of each sample was measured by the BioRad DC assay. […]
(§4) Membranes were incubated with rabbit anti-pERK1/2 antibody (1:1000; 07-362; Cell Signaling Technology, Inc.) in blocking solution overnight at 4° C., washed in TBS with 0.1% Tween-20 (TBST), then incubated with HRP-conjugated anti-rabbit IgG (1:1000, Pierce Biotechnology, Inc., Rockford, Ill.) in blocking solution for 1 hr. […] Ratios of intensity of pERK1/2 or ERK1/2 to β-actin were calculated, normalized to the control samples and subject to statistical analysis. […]

C57BL/6 mice [8] = test: Motor function tests (surface righting, placing/stepping, grasping/climbing); type: in vivo, mouse; settings: after intraparenchymal injection of vector
Procedure: All behavioral testing was conducted in groups of 10 mice per treatment by a blinded observer. Motor function tests were performed before mechanical stimulus threshold or thermal paw withdrawal threshold were measured (Garraway et al., 2007). No deficits in reflexes for surface righting, placing/stepping and grasping/climbing were found in animals treated with either the control rAAV vector or rAAV viral vectors.

ERK2 = test: Western blot of spinal cord dorsal horn: ERK2 and pERK2; type: in vivo, mouse; settings: compared to animals that did not receive intraparenchymal injection of a vector
Procedure: as §1, with “syringe.” for “syringe. The syringe was mounted on a microinjector (David Kopf Instruments, Tujunga, Calif.) attached to a stereotaxic unit (David Kopf Instruments). After the injection, the overlying muscles were closed with 5-0 chromic gut and the skins were closed with wound clips.”
as §3, §4

## siRNA #2: human ERK2 siRNA (884-902) GCUGCAUUCUGGCAGAAAUUU, expressed from the rAAV vector
ERK1 [1]
  ERK1 expression: without significantly changing

## siRNA #3: human ERK2 siRNA (357-375) GUGCUCUGCUUAUGAUAAUUU, expressed from the rAAV vector
ERK1 [1]
  ERK1 expression: without significantly changing

## mm: inactive control mismatch siRNA CCUCGUCAUAAUACUGGGUUU used in HEK293 cells (chemistry not given here)
ERK2 mRNA
  ERK2 mRNA level in the ipsilateral SCDH (in situ hybridization): did not alter; also recorded: no change
[2]
  Renilla/firefly luciferase activity ratio: ineffective
C57BL/6 mice [3]
  mechanical withdrawal threshold: No change
[4]
  gliosis in the spinal cord dorsal horn: no evidence of gliosis
  neuronal cell loss: no evidence of neuronal cell loss
C57BL/6 mice [5]
  heat withdrawal latency: No change
[6]
  cellular localization of GFP immunolabeling: colocalized with NeuN
ERK1 [7]
  expression or phosphorylation of ERK1: did not have any effect
C57BL/6 mice [8]
  animals with signs of motor deficits: None
ERK2
  expression or phosphorylation of ERK2: did not have any effect

## siRNA #1: human ERK2 siRNA (1833-1851) GCAGGAGCUUGUGGAAAUAUU, expressed from the rAAV vector
ERK1 [1]
  ERK1 expression: without significantly changing

Reference: patent US9506068B2, “Pain treatment using ERK2 inhibitors” (Cornell University, priority 2008, dated 2016)
